Experimental data published in ChEMBL document CHEMBL1143804, “Synthesis and antibacterial evaluation of 1beta-methyl-2-[5-(1-methoxyimino-2-substituted sulfonamide ethyl)pyrrolidin-3-ylthio]carbapenems and their related compounds” (2007).
In brackets after ≈: the same amount, converted by molar mass.

Tests used:
[1] = test system: Serratia marcescens; assay: Antibacterial activity against Serratia marcescens 370; format: functional
[2] = test system: Bacillus subtilis; assay: Antibacterial activity against Bacillus subtilts ATCC 6633; format: functional
[3] = test system: Staphylococcus aureus; assay: Antibacterial activity against Staphylococcus aureus giorgio; format: functional
[4] = test system: Escherichia coli; assay: Antibacterial activity against Escherichia coil V6311/65; format: functional
[5] = test system: Pseudomonas aeruginosa; assay: Antibacterial activity against Pseudomonas aeruginosa 77/2; format: functional
[6] = test system: Priestia megaterium; assay: Antibacterial activity against Bacillus megaterium; format: functional
[7] = test system: Streptococcus agalactiae; assay: Antibacterial activity against Streptococcus agalactiae B; format: functional
[8] = test system: Klebsiella aerogenes; assay: Antibacterial activity against Klebsiella aerogenes 1522E; format: functional
[9] = test system: Escherichia coli; assay: Antibacterial activity against Escherichia coil 1507; format: functional
[10] = test system: Escherichia coli; assay: Antibacterial activity against Escherichia coli DC2; format: functional
[11] = test system: Burkholderia cepacia; assay: Antibacterial activity against Pseudomonas cepacia; format: functional
[12] = test system: Staphylococcus aureus; assay: Antibacterial activity against Staphylococcus aureus 285; format: functional
[13] = test system: Serratia marcescens; assay: Antibacterial activity against Serratia marcescens 6093; format: functional
[14] = test system: Providencia rettgeri; assay: Antibacterial activity against Proteus rettgeri 937; format: functional
[15] = test system: Serratia marcescens; assay: Antibacterial activity against Serratia marcescens 14273; format: functional
[16] = test system: Enterococcus durans; assay: Antibacterial activity against Streptococcus durans D; format: functional
[17] = Antibacterial activity against Salmonella oranienberg; format: functional, Salmonella enterica subsp. enterica serovar Oranienburg; conditions: Salmonella enterica
[18] = test system: Trueperella pyogenes; assay: Antibacterial activity against Corynebacterium pyogenes; format: functional
[19] = test system: Escherichia coli; assay: Antibacterial activity against Escherichia coli 0114; format: functional
[20] = test system: Enterobacter cloacae; assay: Antibacterial activity against Enterobactor cloacae 1321E; format: functional
[21] = test system: Streptococcus pyogenes; assay: Antibacterial activity against Streptococcus pyogenes 308A; format: functional
[22] = test system: Enterobacter cloacae; assay: Antibacterial activity against Enterobacter cloacae; format: functional
[23] = test system: Staphylococcus aureus; assay: Antibacterial activity against Staphylococcus aureus 503; format: functional
[24] = test system: Pseudomonas aeruginosa; assay: Antibacterial activity against Pseudomonas aeruginosa 880/2; format: functional
[25] = test system: Enterobacter cloacae; assay: Antibacterial activity against Enterobacter cloacae 417; format: functional
[26] = test system: Staphylococcus aureus; assay: Antibacterial activity against Staphylococcus aureus 209P; format: functional
[27] = test system: Proteus mirabilis; assay: Antibacterial activity against Proteus mirabilis 112/3; format: functional
[28] = test system: Pasteurella multocida; assay: Antibacterial activity against Pasteurella multocida; format: functional
[29] = test system: Streptococcus pyogenes; assay: Antibacterial activity against Streptococcus pyogenes 77A; format: functional
[30] = test system: Corynebacterium diphtheriae; assay: Antibacterial activity against Corynebacterium diphtheriae; format: functional
[31] = test system: Proteus mirabilis; assay: Antibacterial activity against Proteus mirabilis 174/3; format: functional
[32] = test system: Micrococcus luteus; assay: Antibacterial activity against Micrococcus luteus ATCC 9341; format: functional
[33] = test system: Pseudomonas aeruginosa; assay: Antibacterial activity against Pseudomonas aeruginosa 110/2; format: functional
[34] = test system: Escherichia coli; assay: Antibacterial activity against Escherichia coli 0126; format: functional
[35] = test system: Staphylococcus aureus; assay: Antibacterial activity against Staphylococcus aureus SG511; format: functional
[36] = test system: Klebsiella pneumoniae; assay: Antibacterial activity against Klebsiella pneumonise 477; format: functional
[37] = test system: Pseudomonas aeruginosa; assay: Antibacterial activity against Pseudomonas aeruginosa 9027; format: functional
[38] = test system: Escherichia coli; assay: Antibacterial activity against Escherichia coli 086; format: functional
[39] = test system: Enterococcus faecium; assay: Antibacterial activity against Streptococcus faecium 77A; format: functional
[40] = test system: Proteus vulgaris; assay: Antibacterial activity against Proteus vulgaris 868; format: functional
[41] = Antibacterial activity against Salmonella give; format: functional, Salmonella enterica subsp. enterica serovar Give; conditions: Salmonella enterica
[42] = test system: Salmonella typhi; assay: Antibacterial activity against Salmonella typhi; format: functional, Salmonella enterica subsp. enterica serovar Typhi; conditions: Salmonella enterica
[43] = test system: Salmonella typhimurium; assay: Antibacterial activity against Salmonella Typhimurium; format: functional, Salmonella enterica subsp. enterica serovar Typhimurium; conditions: Salmonella enterica
[44] = test system: Escherichia coli; assay: Antibacterial activity against Escherichia coli TEM; format: functional
[45] = test system: Providencia rettgeri; assay: Antibacterial activity against Proteus rettgeri 936; format: functional
[46] = test system: Salmonella; assay: Antibacterial activity against Salmonella orion; format: functional

CNS(=O)(=O)NC/C(=N\OC)[C@@H]1C[C@H](SC2=C(C(=O)O)N3C(=O)[C@H]([C@@H](C)O)[C@H]3[C@H]2C)CN1
MIC [1]: 0.2 µg/mL (≈ 0.407 µM)
MIC [2]: 0.03 µg/mL (≈ 0.061 µM)
MIC [3]: 0.03 µg/mL (≈ 0.061 µM)
MIC [4]: 0.05 µg/mL (≈ 0.102 µM)
MIC [5]: 1.56 µg/mL (≈ 3.17 µM)
MIC [6]: 0.05 µg/mL (≈ 0.102 µM)
MIC [7]: 0.03 µg/mL (≈ 0.061 µM)
MIC [8]: 0.025 µg/mL (≈ 0.0509 µM)
MIC [9]: 0.05 µg/mL (≈ 0.102 µM)
MIC [10]: 0.013 µg/mL (≈ 0.0264 µM)
MIC [11]: 0.4 µg/mL (≈ 0.814 µM)
MIC [12]: 0.098 µg/mL (≈ 0.199 µM)
MIC [13]: 0.2 µg/mL (≈ 0.407 µM)
MIC [14]: 0.4 µg/mL (≈ 0.814 µM)
MIC [15]: 0.4 µg/mL (≈ 0.814 µM)
MIC [16]: 0.1 µg/mL (≈ 0.203 µM)
MIC [17]: 0.2 µg/mL (≈ 0.407 µM)
MIC [18]: 0.01 µg/mL (≈ 0.0203 µM)
MIC [19]: 0.03 µg/mL (≈ 0.061 µM)
MIC [20]: 0.013 µg/mL (≈ 0.0264 µM)
MIC [21]: < 0.01 µg/mL
MIC [22]: 0.01 µg/mL (≈ 0.0203 µM)
MIC [23]: 0.03 µg/mL (≈ 0.061 µM)
MIC [24]: 0.4 µg/mL (≈ 0.814 µM)
MIC [25]: 0.05 µg/mL (≈ 0.102 µM)
MIC [26]: 0.03 µg/mL (≈ 0.061 µM)
MIC [27]: 0.2 µg/mL (≈ 0.407 µM)
MIC [28]: 0.05 µg/mL (≈ 0.102 µM)
MIC [29]: < 0.01 µg/mL
MIC [30]: 0.01 µg/mL (≈ 0.0203 µM)
MIC [31]: 0.2 µg/mL (≈ 0.407 µM)
MIC [32]: 0.01 µg/mL (≈ 0.0203 µM)
MIC [33]: 0.8 µg/mL (≈ 1.63 µM)
MIC [34]: 0.03 µg/mL (≈ 0.061 µM)
MIC [35]: 0.049 µg/mL (≈ 0.0997 µM)
MIC [36]: 0.03 µg/mL (≈ 0.061 µM)
MIC [37]: 1.56 µg/mL (≈ 3.17 µM)
MIC [38]: 0.03 µg/mL (≈ 0.061 µM)
MIC [39]: < 0.01 µg/mL
MIC [40]: 0.4 µg/mL (≈ 0.814 µM)
MIC [41]: 0.1 µg/mL (≈ 0.203 µM)
MIC [42]: 0.03 µg/mL (≈ 0.061 µM)
MIC [43]: 0.025 µg/mL (≈ 0.0509 µM)
MIC [44]: 0.025 µg/mL (≈ 0.0509 µM)
MIC [45]: 0.4 µg/mL (≈ 0.814 µM)
MIC [46]: 0.1 µg/mL (≈ 0.203 µM)

CCS(=O)(=O)NC/C(=N\OC)[C@@H]1C[C@H](SC2=C(C(=O)O)N3C(=O)[C@H]([C@@H](C)O)[C@H]3[C@H]2C)CN1
MIC [8]: 0.781 µg/mL (≈ 1.59 µM)
MIC [10]: 0.391 µg/mL (≈ 0.797 µM)
MIC [12]: 0.781 µg/mL (≈ 1.59 µM)
MIC [20]: 0.781 µg/mL (≈ 1.59 µM)
MIC [21]: 0.195 µg/mL (≈ 0.397 µM)
MIC [29]: 0.098 µg/mL (≈ 0.2 µM)
MIC [35]: 0.195 µg/mL (≈ 0.397 µM)
MIC [37]: 12.5 µg/mL (≈ 25.5 µM)
MIC [43]: 1.56 µg/mL (≈ 3.18 µM)
MIC [44]: 0.195 µg/mL (≈ 0.397 µM)

CO/N=C(\CNC(C)=O)[C@@H]1C[C@H](SC2=C(C(=O)O)N3C(=O)[C@H]([C@@H](C)O)[C@H]3[C@H]2C)CN1
MIC [8]: 0.049 µg/mL (≈ 0.111 µM)
MIC [10]: 0.025 µg/mL (≈ 0.0568 µM)
MIC [12]: 0.098 µg/mL (≈ 0.222 µM)
MIC [20]: 0.013 µg/mL (≈ 0.0295 µM)
MIC [21]: 0.013 µg/mL (≈ 0.0295 µM)
MIC [29]: < 0.01 µg/mL
MIC [35]: 0.049 µg/mL (≈ 0.111 µM)
MIC [37]: 1.56 µg/mL (≈ 3.54 µM)
MIC [43]: 0.049 µg/mL (≈ 0.111 µM)
MIC [44]: 0.025 µg/mL (≈ 0.0568 µM)
